Here are results for one compound from US5437980A, “Phenanthridium dye staining of nucleic acids in living cells” (Molecular Probes, Inc., priority 1993, dated 1995).

The structures appear in SMILES notation.

The test system of test [1] is epidermal tissue of the bulb, Alium spp. In words: Staining of plant cell tissue (Example 6). It is filed as cell-based. The following applies: 10 μM dye, 30 min, room temperature. The method, then: A small section of tissue from the bulb is removed with a razor blade. 0.5 mL of a 10 μM solution of the 5-DAPP/LIVE dye in distilled water is dispensed into a small glass dish. The epidermal tissue is cut into sections and placed in the dye solution. The tissue is stained for 30 min at room temperature in the dark then the tissue preparation is mounted in the presence of the dye between a coverglass and the slide.

The subject of a further test is Saccharomyces. In words: Staining of yeast (Example 5). The following applies: 10 μM dye, 30 min, 37° C. It is filed as cell-based. The method, then:
Yeast cells are washed by centrifugation and then resuspended in a solution of 2% glucose and 10 mM Na-HEPES, pH 7.4 to a cell density of between 5×10^5 and 2×10^6 cells/mL optical density at 410 nm (previously calibrated with YPD agar plate colony counts). Sufficient 10 mM stock solution of the 5-DAPP/LIVE dye in DMSO is added to effect a final concentration of 10 μM of the dye in the medium. The suspension is incubated for 30 min at 37° C. then 15 μL are placed between a coverglass and the microscope slide. The cellular fluorescence is observed using fluorescein (long-pass emission) or rhodamine filter sets.

The test system of test [2] is living cells. The experiment in a line: Entry into / staining of living cells, general. It is filed as cell-based. The following applies: general summary, several types of cells.
Test [3] deals with free-living ciliate and flagellate protozoans. In words: Staining of protozoa (Example 7). It is filed as cell-based. The following applies: 1 μL of 10 mM dye in 1 mL culture, 10 min, ambient temperature. The method, then: 1 μL of 10 mM the 5-DAPP/LIVE dye stock is added to 1 mL of protozoan culture. The medium is incubated for 10 min at ambient temperature. 15 μL of this preparation is mounted with dye between a coverglass and the slide. Using this procedure, the nuclei of most cells of the free-living ciliate and flagellate protozoans are stained under these conditions.

Another test has as its system gram-positive bacteria. The following applies: mild conditions; application Ser. No. 08/047,683; cited from earlier work.
Another test concerns gram-negative bacteria. The following applies: mild conditions; application Ser. No. 08/047,683; cited from earlier work.
For another test, the system named is Bacillus cereus. The experiment in a line: Relative rate and extent of dye uptake into living Bacillus cereus (Example 2, FIG. 1). It is filed as cell-based. The following applies: 2 μM dye, 23° C., 488 nm excitation, 600 nm emission. Here is the method: FIG. 1. Relative Uptake of Dyes into Living Cells. Uptake of ethidium, butidium, hexidium and octidium by Bacillus cereus as described in Example 2.
Bacillus cereus is grown in nutrient broth to log phase, washed by centrifugation, and resuspended in water to a density of 5×10^6 cfu/mL (as determined in Example 1). One centimeter pathlength acrylic cuvettes containing 3 mL of cell suspension are placed in a fluorescence spectrophotometer equipped with a temperature regulated cuvette holder and magnetic stirrer. The suspensions are brought to 23° C. prior to dye addition. To a cuvette of 3 mL bacteria suspension is added 3 μL of 2 mM dye stock solutions in DMSO to give a final dye concentration of 2 μM to produce the maximum attainable fluorescence/cell at the 600 nm emission wavelength (determined as in Example 1). The peak fluorescence excitation and emission wavelengths are determined by scanning the spectrum of the dye in suspensions of Bacillus cereus incubated for 30 min with the dye. Fluorescence intensity of the suspensions is measured using 488 nm excitation and 600 nm emission wavelengths. Sampling of fluorescence is carried out at 5 or 10 Hz until the fluorescence signal appears to stabilize.

Test [4] deals with living cells. The following applies: intact cell membrane; background; cited from earlier work.
For the next test, the system named is trypanosome. The following applies: Watkins, J. CHEM SOC. 3059 (1952); Watkins & Woolfe; cited from earlier work.
Test [5] relates to peripheral blood lymphocytes. The experiment in a line: Staining of peripheral blood lymphocytes, fluorometer (Example 11). It is filed as cell-based, goat. The following applies: on the scale of seconds. Here is the method:
Peripheral blood lymphocytes (PBL) are isolated from fresh heparinized goat blood and resuspended in buffer consisting of 135 mM NaCl, 5 mM KCl, 20 mM HEPES, 1 mM CaCl2, 1 mM MgCl2, pH 7.4 (HBSS+). The cells are resuspended to 10^6 mL (as determined by direct microscopic count using a standard hemocytometer) in a final volume of 3 mL in the above buffer in a quartz cuvette. 5-DAPP/LIVE dye stocks are prepared to final concentrations of 2 mM in DMSO. 3 μL of the octidium dye stock solution is injected into the cuvette to a final concentration of 2 μM. In a fluorometer, the sample is excited at 520 nm and fluorescence emission is monitored at 600 nm over the time required for the fluorescence signal to become stable. Hexidium, butidium and ethidium bromide are injected into separate samples of PBL to determine the relative rates of uptake for these stains. The volume of dye solution added to the cuvette is corrected by a factor relating the absorbance of the dye to the absorbance of a 2 mM octidium solution.

Another test concerns mushroom spores. The experiment in a line: Staining of mushroom spores by fluorescence microscopy (Example 4). It is filed as cell-based, agaric. The following applies: 10-20 μM dye, 30 min, room temperature. Here is the method: Spores are rinsed from the gills on the underside of the cap of an agaric using a stream of distilled water. The spores are concentrated by centrifugation for 30 sec at 10,000 rpm in a microcentrifuge then a minimal volume of a 10-20 μM solution of the 5-DAPP/LIVE dye in distilled water is added. The suspension is incubated with the dye for 30 min at room temperature then a 15 μL aliquot of the suspension is mounted on between a coverglass and the slide for viewing in the presence of the dye. The cellular fluorescence is observed on a Zeiss Axioplan fluorescence microscope using fluorescein (long:pass emission) or rhodamine filter sets.

As for `CC[n+]1c(-c2ccccc2)c2cc(N)ccc2c2ccc(N)cc21` [ethidium, reference compound], in test [1], the “cell wall / surface staining” value is “more hazy surface staining”. Besides, in the test with Saccharomyces, the “staining distribution and intensity” value is “stains all yeast slightly with a pale red nucleus and hazy red cytoplasm”. Also, the “entry into / staining of live cells” value with living cells [2] is “does not enter most live cells easily”. In [3], the “staining of nuclei of protozoans” value is “octidium which is better than butidium and ethidium”. Further, in the test on gram-positive bacteria, the “staining of live gram-positive bacteria” value was “does not effectively stain”. Besides, the “staining of live gram-negative bacteria” value in the test on gram-negative bacteria is on record as “does not effectively stain”. In the test on Bacillus cereus, the “rate of dye loading” value was “increases with carbon chain length”. In addition, the “suitability for staining of nucleic acids in living cells” value in the test with living cells [4] is “usually not suitable for staining of nucleic acids in living cells in which the cell membrane is intact”. In addition, the “trypanocidal effectiveness / therapeutic potential” value with trypanosome is reported as “superior to that of other 5-DAPP derivatives with longer alkyl chains”. Moreover, the “distribution of dye into nucleus of lymphocytes” value in test [5] is “not ethidium”. In the test with mushroom spores, the “fraction of spores entered” value is given as “less than 10%”.
